In the oligonucleotide strings, read from the 5' end, every base follows the letter of its sugar. An asterisk marks phosphorothioate; unmarked linkages are phosphodiester. Other units and linkages are bracketed, terminal groups are in braces. A string of capitals states the bases alone. e = 2'-O-(2-methoxyethyl) (MOE); [5mC] = 5-methylcytosine; d = 2'-deoxy (DNA)
The substances below were run on human Factor 7 mRNA (assay: Antisense inhibition of human Factor 7 mRNA in HepB3 cells, lipofectin, 50 nM, real-time RT-PCR). Settings: Example 1; HepB3 cells, lipofectin, 50 nM, ~24 h, relative to untreated control cells.
Format: cell-based
Method in brief: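 Readout is percent reduction of Factor 7 message compared with untreated cells, after correction for total RNA content quantified by RIBOGREEN®. Cultures were seeded at 4,000 cells per well and treated for about 24 hours before RNA extraction.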

In order of falling “% Inhibition (human Factor 7 mRNA)” value:
1. 407639 (antisense eT*eT*eT*eG*e[5mC]*dA*dG*d[5mC]*d[5mC]*dA*d[5mC]*dT*d[5mC]*dG*dA*eT*eG*eT*eA*e[5mC]) [compound 407639]  76%
2. 403093 (antisense eG*eA*eG*eA*e[5mC]*d[5mC]*d[5mC]*dT*dG*dG*dT*dG*dT*dA*d[5mC]*eA*e[5mC]*e[5mC]*e[5mC]*e[5mC]) [compound 403093]  75%
3. 407896 (antisense e[5mC]*eG*eT*eG*eT*dG*dG*dT*d[5mC]*dA*d[5mC]*dT*dG*d[5mC]*dA*eG*eT*eA*e[5mC]*eT) [compound 407896]  73%
4. 407598 (antisense e[5mC]*e[5mC]*eA*eT*eG*dA*dT*dG*dA*dA*dA*dT*d[5mC]*dT*d[5mC]*eT*eG*e[5mC]*eA*eG) [compound 407598]  72%
5. 407615 (antisense eG*eA*e[5mC]*eA*e[5mC]*d[5mC]*d[5mC]*d[5mC]*dG*dT*d[5mC]*dT*dG*d[5mC]*d[5mC]*eA*eG*e[5mC]*eA*eG) [compound 407615]  65%
6. 407621 (antisense eA*e[5mC]*eA*eA*e[5mC]*dA*dG*dG*dA*d[5mC]*d[5mC]*dT*dG*d[5mC]*d[5mC]*eA*eT*eG*eG*eA) [compound 407621]  62%
7. 407958 (antisense eG*e[5mC]*e[5mC]*eG*eT*dG*d[5mC]*dT*dT*dG*d[5mC]*d[5mC]*dG*dG*dA*eG*eT*e[5mC]*eT*eG) [compound 407958]  58%
8. 407932 (antisense eG*eA*eA*e[5mC]*e[5mC]*dA*dG*dA*dA*dA*dA*dG*dT*dG*dA*eG*eA*eG*e[5mC]*eT) [compound 407932]  55%
9. 407929 (antisense eG*e[5mC]*eA*eG*eA*dG*d[5mC]*dA*dG*d[5mC]*dA*dG*d[5mC]*d[5mC]*dT*eG*eA*eG*eG*e[5mC]) [compound 407929]  53%
10. 407632 (antisense eT*e[5mC]*e[5mC]*eG*eT*dT*d[5mC]*dG*dG*dG*d[5mC]*dA*dG*dG*d[5mC]*eA*eG*eA*eG*eG) [compound 407632]  46%
11. 407934 (antisense e[5mC]*eT*eG*eA*eA*dG*dT*dG*dA*dA*dG*dA*dT*dG*dA*eT*eA*eA*eT*eG) [compound 407934]  45%
12. 407597 (antisense eT*eG*eT*eT*eG*dA*d[5mC]*dA*dT*dT*d[5mC]*d[5mC]*d[5mC]*d[5mC]*dA*eT*eG*eG*eG*eA) [compound 407597]  39%
13. 407650 (antisense e[5mC]*e[5mC]*eA*eT*eG*dT*dG*dA*dG*dG*dG*dT*dT*d[5mC]*dA*eT*eT*eT*e[5mC]*eA) [compound 407650]  39%
14. 407629 (antisense eT*e[5mC]*eA*eG*eT*dG*dA*dG*dG*dA*d[5mC]*d[5mC]*dA*d[5mC]*dG*eG*eG*e[5mC]*eT*eG) [compound 407629]  34%
15. 407651 (antisense eA*eG*e[5mC]*e[5mC]*eT*d[5mC]*dA*dA*dA*d[5mC]*dA*dT*d[5mC]*dT*dA*eT*e[5mC]*eA*eA*eA) [compound 407651]  32%
16. 407953 (antisense eA*e[5mC]*eA*eT*e[5mC]*d[5mC]*dA*dA*dT*dT*d[5mC]*d[5mC]*dA*d[5mC]*dA*eG*eG*eA*eT*e[5mC]) [compound 407953]  20%
17. 407951 (antisense eA*eA*e[5mC]*eA*eG*d[5mC]*dT*dT*dT*dT*dG*dT*dT*dT*dT*eT*eA*eA*eA*eA) [compound 407951]  0%
18. 407638 (antisense eG*e[5mC]*e[5mC]*eA*e[5mC]*dT*d[5mC]*dG*dA*dT*dG*dT*dA*d[5mC]*dT*eG*eG*eG*eA*eG) [compound 407638]  0%

Same assay, conditions: Example 4; HepB3 cells, lipofectin, 50 nM, ~24 h, relative to untreated control

With “422198 (antisense eG*eT*eT*dA*d[5mC]*dT*dG*dA*dG*d[5mC]*dG*d[5mC]*dG*dG*dA*dA*dG*eA*eA*eG) [compound 422198]” the “% Inhibition (human Factor 7 mRNA)” value was 50%.

Same assay, conditions: Example 6 microwalk, nucleobases 15098 to 15122 of SEQ ID NO: 1; HepB3, lipofectin, 50 nM, ~24 h

With “416479 (antisense eG*eA*e[5mC]*eA*eG*d[5mC]*dA*d[5mC]*dA*d[5mC]*dA*dT*dG*dG*dA*eG*eT*e[5mC]*eA*eG) [compound 416479]” the “% Inhibition (human Factor 7 mRNA)” value was 47%.

Same assay, conditions: HepB3 cells, lipofectin, 50 nM antisense oligonucleotide, approximately 24 hours, primer probe set RTS 2927, relative to untreated control

In order of rising “% Inhibition of human Factor 7 mRNA levels” value:
1. 416547 (antisense eA*eT*eG*eA*eA*dA*dT*dT*d[5mC]*dT*dA*d[5mC]*d[5mC]*dT*dA*eA*eA*eG*eA*eT) [compound 416547]  0%
2. 416524 (antisense eT*eA*eA*eT*eT*dT*dA*dA*dT*dA*dT*dT*d[5mC]*dA*dG*eA*eT*eG*eG*eT) [compound 416524]  0%
3. 416452 (antisense e[5mC]*e[5mC]*eA*eA*e[5mC]*dA*dA*d[5mC]*dA*dG*dG*dA*d[5mC]*d[5mC]*dT*eG*e[5mC]*e[5mC]*eA*eT) [compound 416452]  19%
4. 416558 (antisense eT*eG*eA*e[5mC]*eA*dG*d[5mC]*dA*d[5mC]*dG*dA*dA*dG*d[5mC]*d[5mC]*e[5mC]*eA*eG*eA*eG) [compound 416558]  19%
5. 416469 (antisense eG*e[5mC]*eA*eG*e[5mC]*d[5mC]*dA*d[5mC]*dT*d[5mC]*dG*dA*dT*dG*dT*eA*e[5mC]*eT*eG*eG) [compound 416469]  55%
6. 416518 (antisense eG*eG*eG*eT*eG*dA*d[5mC]*d[5mC]*dA*d[5mC]*dA*d[5mC]*dA*dT*dT*eT*e[5mC]*e[5mC]*eT*eG) [compound 416518]  55%
7. 416553 (antisense eG*eG*eT*eT*e[5mC]*dT*d[5mC]*dT*dG*d[5mC]*dA*d[5mC]*dA*dG*dG*eG*eT*eA*eG*eA) [compound 416553]  56%
8. 416557 (antisense eT*e[5mC]*e[5mC]*e[5mC]*eA*dG*dG*d[5mC]*dA*dA*dA*dG*d[5mC]*dT*dG*e[5mC]*eT*e[5mC]*eA*eG) [compound 416557]  56%
9. 416479 (antisense eG*eA*e[5mC]*eA*eG*d[5mC]*dA*d[5mC]*dA*d[5mC]*dA*dT*dG*dG*dA*eG*eT*e[5mC]*eA*eG) [compound 416479]  56%
10. 416445 (antisense eT*eA*e[5mC]*eT*eG*d[5mC]*dT*d[5mC]*dA*d[5mC]*dA*dG*d[5mC]*d[5mC]*dG*e[5mC]*e[5mC]*eG*eT*eT) [compound 416445]  57%
11. 416476 (antisense eG*e[5mC]*eA*eG*eG*dT*dG*dG*dG*d[5mC]*dT*dT*dG*dG*d[5mC]*eT*eG*eA*eA*eG) [compound 416476]  58%

Same assay, conditions: HepB3 cells; gapmers (5-10-5, 3-14-3, 2-13-5 MOE) targeted to nucleobases 4868 to 4899 of SEQ ID NO: 1

With “422141 (antisense eA*eG*eT*eT*e[5mC]*dT*dG*d[5mC]*dA*dG*dG*dA*dG*d[5mC]*dG*eG*e[5mC]*e[5mC]*eT*eA) [compound 422141]” the “% Inhibition of human Factor 7 mRNA levels” value was 64%.

Same assay, conditions: HepB3 cells; gapmers targeted to nucleobases 11830 to 11869 of SEQ ID NO: 1 (Table 9)

In order of falling “% Inhibition of human Factor 7 mRNA levels” value:
1. 422102 (antisense e[5mC]*eT*eG*eA*eG*dG*dA*dG*dA*d[5mC]*dA*dA*dT*dG*dG*eT*e[5mC]*eA*eG*eG) [compound 422102]  62%
2. 422105 (antisense eT*eG*eG*e[5mC]*eT*dG*dA*dG*dG*dA*dG*dA*d[5mC]*dA*dA*eT*eG*eG*eT*e[5mC]) [compound 422105]  60%
3. 422165 (antisense eG*eG*eA*dG*dA*d[5mC]*dA*dA*dT*dG*dG*dT*d[5mC]*dA*dG*dG*dG*e[5mC]*eT*eG) [compound 422165]  57%

Same assay, conditions: HepB3 cells; gapmers targeted to nucleobases 13760 to 13789 of SEQ ID NO: 1 (Table 10)

In order of falling “% Inhibition of human Factor 7 mRNA levels” value:
1. 422261 (antisense eT*eG*d[5mC]*dG*d[5mC]*d[5mC]*dA*d[5mC]*d[5mC]*d[5mC]*dG*d[5mC]*d[5mC]*dG*dG*e[5mC]*eT*e[5mC]*eT*eG) [compound 422261]  47%
2. 422178 (antisense eA*e[5mC]*e[5mC]*d[5mC]*dG*d[5mC]*d[5mC]*dG*dG*d[5mC]*dT*d[5mC]*dT*dG*d[5mC]*dT*d[5mC]*eA*eT*e[5mC]) [compound 422178]  37%

Same assay, conditions: HepB3 cells; gapmers targeted to nucleobases 14707 to 14732 of SEQ ID NO: 1 (Table 11)

In order of falling “% Inhibition of human Factor 7 mRNA levels” value:
1. 422281 (antisense eG*e[5mC]*dA*dG*d[5mC]*d[5mC]*dT*dG*dA*dG*dG*d[5mC]*d[5mC]*dA*dG*e[5mC]*eA*eG*eA*eT) [compound 422281]  57%
2. 422277 (antisense e[5mC]*e[5mC]*dT*dG*dA*dG*dG*d[5mC]*d[5mC]*dA*dG*d[5mC]*dA*dG*dA*eT*e[5mC]*eA*e[5mC]*eG) [compound 422277]  56%
3. 422202 (antisense eA*eG*e[5mC]*d[5mC]*dT*dG*dA*dG*dG*d[5mC]*d[5mC]*dA*dG*d[5mC]*dA*dG*dA*eT*e[5mC]*eA) [compound 422202]  49%

Same assay, conditions: HepB3 cells; gapmers targeted to nucleobases 15188 to 15211 of SEQ ID NO: 1 (Table 13)

For “422085 (antisense eG*e[5mC]*eA*eT*eG*dG*dT*dG*dA*dT*dG*d[5mC]*dT*dT*d[5mC]*eT*eG*eA*eA*eT) [compound 422085]”, the “% Inhibition of human Factor 7 mRNA levels” value was 70%.
